# Data from article PMC5637554 (MedChemComm, 2017).
# Biological target: MDM2 (Homo sapiens, UniProt Q00987)
# Assay: Fluorescence polarization
# Format: binding
# Conditions: FP; 4-chloro-phenyl anchor instead of 6-chloro-indole
# Chain of MDM2 (Q00987 whole entry): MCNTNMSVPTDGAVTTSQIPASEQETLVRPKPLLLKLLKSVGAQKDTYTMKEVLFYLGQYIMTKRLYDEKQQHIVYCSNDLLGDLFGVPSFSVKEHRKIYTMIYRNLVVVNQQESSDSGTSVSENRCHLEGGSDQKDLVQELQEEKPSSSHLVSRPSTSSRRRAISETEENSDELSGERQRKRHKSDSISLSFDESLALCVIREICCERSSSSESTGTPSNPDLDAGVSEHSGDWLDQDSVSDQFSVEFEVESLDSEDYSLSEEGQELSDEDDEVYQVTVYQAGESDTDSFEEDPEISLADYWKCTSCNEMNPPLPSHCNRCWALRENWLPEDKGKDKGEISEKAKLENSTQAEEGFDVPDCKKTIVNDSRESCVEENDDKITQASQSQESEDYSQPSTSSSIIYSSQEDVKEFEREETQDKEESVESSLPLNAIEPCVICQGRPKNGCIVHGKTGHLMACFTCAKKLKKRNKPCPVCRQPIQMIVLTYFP
smiles,measurement,value
CC(C)(C)NC(=O)C(c1ccc(Cl)cc1)N1C(=O)CC1c1ccc(OCc2ccccc2)cc1 (stereo not shown) [Compound 2g],activity against MDM2/X,did not show any activity
